According to US7625890B2, “Substituted imidazo[4,5-c]pyridine compounds as Akt inhibitors” (SmithKline Beecham Corp., priority 2005, dated 2009):
Values after ≈ are worked out from the molar mass of the structure shown. Where a name gives a salt, the structure may show the parent alone.

Assay: Solubility
Assay type: physicochemical
Settings: for solubility: aqueous buffer, 50 mM phosphate buffer, pH 7.4; for solubility, suitability for IV dosage forms: statement in words

For `CCn1c(-c2nonc2N)nc2c(C#CC(C)(C)O)ncc(OC[C@@H]3CNCCS3)c21` (single isomer, unassigned; enantiomer e1) [Example 3, 4-{2-(4-amino-1,2,5-oxadiazol-3-yl)-1-ethyl-7-[(2-thiomorpholinylmethyl)oxy]-1H-imidazo[4,5-c]pyridin-4-yl}-2-methyl-3-butyn-2-ol dihydrochloride (enantiomer E1)], the solubility was 110 µM and the “solubility, suitability for IV dosage forms” value (“solubility, suitability” below) was “suitable for formulation into dosage forms for IV administration”.

With `CCn1c(-c2nonc2N)nc2c(C#CC(C)(C)O)ncc(OC[C@@H]3CN(C)CCS3)c21` (single isomer, unassigned; enantiomer e1) [Example 7, 4-(2-(4-amino-1,2,5-oxadiazol-3-yl)-1-ethyl-7-{[(4-methyl-2-thiomorpholinyl)methyl]oxy}-1H-imidazo[4,5-c]pyridin-4-yl)-2-methyl-3-butyn-2-ol (enantiomer E1)] the solubility was 23 µM (≈ 10.5 µg/mL).

For `CCn1c(-c2nonc2N)nc2c(C#CC(C)(C)O)ncc(OCC3CNCC(C)O3)c21` (stereo in doubt) [Example 9, 4-[2-(4-amino-1,2,5-oxadiazol-3-yl)-1-ethyl-7-({[(2R)-6-methyl-2-morpholinyl]methyl}oxy)-1H-imidazo[4,5-c]pyridin-4-yl]-2-methyl-3-butyn-2-ol, dihydrochloride], the solubility was 129 µM and the “solubility, suitability” value was “suitable for formulation into dosage forms for IV administration”.

For `CCn1c(-c2nonc2N)nc2c(C#CC(C)(C)O)ncc(OC[C@H]3CCCNC3)c21` [Example 1, 4-(2-(4-amino-1,2,5-oxadiazol-3-yl)-1-ethyl-7-{[(3S)-3-Piperidinylmethyl]oxy}-1H-imidazo[4,5-c]pyridin-4-yl)-2-methyl-3-butyn-2-ol], the solubility was 210 µM (≈ 89.4 µg/mL) and the “solubility, suitability” value was “suitable for formulation into dosage forms for IV administration”.

For `CCn1c(-c2nonc2N)nc2c(C#CC(C)(C)O)ncc(OC[C@H]3CNCCO3)c21` [Example 2, 4-(2-(4-amino-1,2,5-oxadiazol-3-yl)-1-ethyl-7-{[(2R)-2-morpholinylmethyl]oxy}-1H-imidazo[4,5-c]pyridin-4-yl)-2-methyl-3-butyn-2-ol dihydrochloric acid salt], the solubility was 188 µM.

In the case of `CCn1c(-c2nonc2N)nc2c(C#CC(C)(C)O)ncc(OC[C@@H]3CNCCO3)c21` [Example 4, 4-(2-(4-amino-1,2,5-oxadiazol-3-yl)-1-ethyl-7-{[(2S)-2-morpholinylmethyl]oxy}-1H-imidazo[4,5-c]pyridin-4-yl)-2-methyl-3-butyn-2-ol], the solubility is reported as 154 µM (≈ 65.8 µg/mL) and the “solubility, suitability” value is reported as “suitable for formulation into dosage forms for IV administration”.

For `CCn1c(-c2nonc2N)nc2c(C#CC(C)(C)O)ncc(OCC3CCNC3)c21` (centres unmarked) [Example 5, 4-{2-(4-amino-1,2,5-oxadiazol-3-yl)-1-ethyl-7-[(3-Pyrrolidinylmethyl)oxy]-1H-imidazo[4,5-c]pyridin-4-yl}-2-methyl-3-butyn-2-ol, bis-trifluoroacetic acid salt], the solubility was 83 µM.

For `CCn1c(-c2nonc2N)nc2c(C#CC(C)(C)O)ncc(OC[C@H]3CCCN(C)C3)c21` [Example 6, 4-[2-(4-amino-1,2,5-oxadiazol-3-yl)-1-ethyl-7-({[(3S)-1-methyl-3-piperidinyl]methyl}oxy)-1H-imidazo[4,5-c]pyridin-4-yl]-2-methyl-3-butyn-2-ol, dihydrochloride], the solubility was 44 µM.

For `CCn1c(-c2nonc2N)nc2c(C#CC(C)(C)O)ncc(OC[C@@H]3CN(C)CCO3)c21` [Example 8, 4-[2-(4-amino-1,2,5-oxadiazol-3-yl)-1-ethyl-7-({[(2S)-4-methyl-2-morpholinyl]methyl}oxy)-1H-imidazo[4,5-c]pyridin-4-yl]-2-methyl-3-butyn-2-ol], the solubility was 34 µM (≈ 15 µg/mL).

With `CCN1CCO[C@H](COc2cnc(C#CC(C)(C)O)c3nc(-c4nonc4N)n(CC)c23)C1` [Example 10, 4-[2-(4-amino-1,2,5-oxadiazol-3-yl)-1-ethyl-7-({[(2S)-4-ethyl-2-morpholinyl]methyl}oxy)-1H-imidazo[4,5-c]pyridin-4-yl]-2-methyl-3-butyn-2-ol] the solubility was 6 µM (≈ 2.73 µg/mL).
